Source: patent publication US20230085307A1, “PYRIDAZINONE COMPOUND AND HERBICIDE” (NISSAN CHEMICAL CORPORATION, priority 2019, published 2023)

Assays:
[1] = tested on: barnyard grass; assay: Test Example 5: herbicidal effect by foliage application, plastic box (Table 20, symbol H); type: in vivo, barnyard grass (Echinochloa crus-galli); details: foliage application; for H: barnyard grass, herbicidal effect grade: 320 g/ha, three weeks after application
Method in brief: (§1)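 Plants were sown into sterilized diluvial soil under about 1.5 cm cover and kept in a greenhouse at 25° C. to 30° C. Fourteen days on, foliage received an even spray of the diluted emulsion. Herbicidal or crop effect was judged three weeks afterwards.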

[2] = tested on: Japanese bulrush; assay: Test Example 1: herbicidal activity, application before weed generation under submerged conditions (Table 16, symbol B); type: in vivo, Japanese bulrush (Schoenoplectus juncoides); details: amount of applied herbicide 320 g/ha
Method in brief: (§2)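 Submerged Wagner pots (alluvial soil, 4 cm water) sown with weed seeds and planted with 2.5-leaf rice seedlings; emulsifiable concentrate diluted in water applied to water surface on sowing day. Held in greenhouse at 25-30 °C; injury scored 0-5 by herbicidal rate after three weeks.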

[3] = tested on: windgrass; assay: Test Example 5: herbicidal effect by foliage application, plastic box (Table 20, symbol L); type: in vivo, windgrass (Apera spica-venti); details: foliage application; for L: windgrass, herbicidal effect grade: 320 g/ha, three weeks after application
Method in brief: as §1

[4] = tested on: blackgrass; assay: Test Example 5: herbicidal effect by foliage application, plastic box (Table 20, symbol J); type: in vivo, blackgrass (Alopecurus myosuroides); details: foliage application; for J: blackgrass, herbicidal effect grade: 320 g/ha, three weeks after application
Method in brief: as §1

[5] = tested on: windgrass; assay: Test Example 4: herbicidal effect by soil treatment (Table 19, symbol L); type: in vivo, windgrass (Apera spica-venti); details: amount of applied herbicide 320 g/ha
Method in brief: (§3)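 In this soil treatment, the formulated compound reached the seeds only through the soil: seeds were buried about 1.5 cm deep in sterilized diluvial soil, then the diluted emulsion was sprayed over the surface. After three weeks at 25° C. to 30° C. in a greenhouse, effects were graded on criteria from an earlier test.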

[6] = tested on: green foxtail; assay: Test Example 4: herbicidal effect by soil treatment (Table 19, symbol G); type: in vivo, green foxtail (Setaria viridis); details: amount of applied herbicide 320 g/ha
Method in brief: as §3

[7] = tested on: Italian ryegrass; assay: Test Example 4: herbicidal effect by soil treatment (Table 19, symbol K); type: in vivo, Italian ryegrass (Lolium multiflorum); details: amount of applied herbicide 320 g/ha
Method in brief: as §3

[8] = tested on: redroot pigweed; assay: Test Example 5: herbicidal effect by foliage application, plastic box (Table 20, symbol N); type: in vivo, redroot pigweed (Amaranthus retroflexus); details: foliage application; for N: redroot pigweed, herbicidal effect grade: 320 g/ha, three weeks after application
Method in brief: as §1

[9] = tested on: southern crabgrass; assay: Test Example 4: herbicidal effect by soil treatment (Table 19, symbol F); type: in vivo, southern crabgrass (Digitaria ciliaris); details: amount of applied herbicide 320 g/ha
Method in brief: as §3

[10] = tested on: wild oat; assay: Test Example 5: herbicidal effect by foliage application, plastic box (Table 20, symbol I); type: in vivo, wild oat (Avena fatua); details: foliage application; for I: wild oat, herbicidal effect grade: 320 g/ha, three weeks after application
Method in brief: as §1

[11] = tested on: green foxtail; assay: Test Example 5: herbicidal effect by foliage application, plastic box (Table 20, symbol G); type: in vivo, green foxtail (Setaria viridis); details: foliage application; for G: green foxtail, herbicidal effect grade: 320 g/ha, three weeks after application
Method in brief: as §1

[12] = tested on: late watergrass; assay: Test Example 1: herbicidal activity, application before weed generation under submerged conditions (Table 16, symbol A); type: in vivo, late watergrass (Echinochloa oryzicola); details: amount of applied herbicide 320 g/ha
Method in brief: as §2

[13] = tested on: persian speedwell; assay: Test Example 4: herbicidal effect by soil treatment (Table 19, symbol R); type: in vivo, Persian speedwell (Veronica persica); details: amount of applied herbicide 320 g/ha
Method in brief: as §3

[14] = tested on: velvetleaf; assay: Test Example 4: herbicidal effect by soil treatment (Table 19, symbol M); type: in vivo, velvetleaf (Abutilon theophrasti); details: amount of applied herbicide 320 g/ha
Method in brief: as §3

[15] = tested on: rice flat sedge; assay: Test Example 3: herbicidal effect by foliage application, Wagner pot (Table 18, symbol E); type: in vivo, rice flat sedge (Cyperus iria); details: amount of applied herbicide 320 g/ha
Method in brief: (§4)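 Plants were sown in alluvial soil held under 0.1–0.5 cm standing water and grown 14 days in a greenhouse at 25–30 °C. An emulsifiable formulation, water-diluted to the set dose, was then sprayed onto the foliage, and effects were scored three weeks later using previously defined criteria.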

[16] = tested on: barnyard grass; assay: Test Example 3: herbicidal effect by foliage application, Wagner pot (Table 18, symbol H); type: in vivo, barnyard grass (Echinochloa crus-galli); details: amount of applied herbicide 320 g/ha
Method in brief: as §4

[17] = tested on: southern crabgrass; assay: Test Example 5: herbicidal effect by foliage application, plastic box (Table 20, symbol F); type: in vivo, southern crabgrass (Digitaria ciliaris); details: foliage application; for F: southern crabgrass, herbicidal effect grade: 320 g/ha, three weeks after application
Method in brief: as §1

[18] = tested on: velvetleaf; assay: Test Example 5: herbicidal effect by foliage application, plastic box (Table 20, symbol M); type: in vivo, velvetleaf (Abutilon theophrasti); details: foliage application; for M: velvetleaf, herbicidal effect grade: 320 g/ha, three weeks after application
Method in brief: as §1

[19] = AAH 320 g/ha, evaluated three weeks after application

Row | SMILES | Herbicidal effect, B: Japanese bulrush [2] | herbicidal effect, L: windgrass [5] | herbicidal effect, G: green foxtail [6] | herbicidal effect, K: Italian ryegrass [7] | herbicidal effect, F: southern crabgrass [9] | Herbicidal effect, A: late watergrass [12] | herbicidal effect, R: persian speedwell [13] | herbicidal effect, M: velvetleaf [14] | herbicidal effect on E: rice flat sedge [15] | herbicidal effect on H: barnyard grass [16] | H: barnyard grass, herbicidal effect grade [1] | L: windgrass, herbicidal effect grade [3] | J: blackgrass, herbicidal effect grade [4] | N: redroot pigweed, herbicidal effect grade [8] | I: wild oat, herbicidal effect grade [10] | G: green foxtail, herbicidal effect grade [11] | F: southern crabgrass, herbicidal effect grade [17] | M: velvetleaf, herbicidal effect grade [18] | also measured
1 | Cc1nn(C)c(=O)c(-c2c(-c3ccc4c(c3)OC(F)(F)O4)sc3ccc(F)cc23)c1O [2-392] | 0 (Herbicidal rate of 5% or less (almost no effect)) | 1 (Herbicidal rate of 5% or more and less than 20%) | 1 (Herbicidal rate of 5% or more and less than 20%) | 3 (Herbicidal rate of 40% or more and less than 70%) | 2 (Herbicidal rate of 20% or more and less than 40%) | 3 (Herbicidal rate of 40% or more and less than 70%) | 5 (Herbicidal rate of 90% or more (almost completely withered)) | 1 (Herbicidal rate of 5% or more and less than 20%) | 5 (Herbicidal rate of 90% or more (almost completely withered)) | 5 (Herbicidal rate of 90% or more (almost completely withered)) | – | – | – | – | – | – | – | – | H: barnyard grass, herbicidal effect (criteria 0-5) [1, 19]: 5 (Herbicidal rate of 90% or more (almost completely withered)); L: windgrass, herbicidal effect (criteria 0-5) [3, 19]: 0 (Herbicidal rate of 5% or less (almost no effect)); J: blackgrass, herbicidal effect (criteria 0-5) [4, 19]: 0 (Herbicidal rate of 5% or less (almost no effect)); N: redroot pigweed, herbicidal effect (criteria 0-5) [8, 19]: 4 (Herbicidal rate of 70% or more and less than 90%); I: wild oat, herbicidal effect (criteria 0-5) [10, 19]: 4 (Herbicidal rate of 70% or more and less than 90%); G: green foxtail, herbicidal effect (criteria 0-5) [11, 19]: 3 (Herbicidal rate of 40% or more and less than 70%); F: southern crabgrass, herbicidal effect (criteria 0-5) [17, 19]: 4 (Herbicidal rate of 70% or more and less than 90%); M: velvetleaf, herbicidal effect (criteria 0-5) [18, 19]: 5 (Herbicidal rate of 90% or more (almost completely withered))
2 | CCCC(=O)Oc1c(CC)nn(C)c(=O)c1-c1c(-c2ccc(C(F)(F)F)cc2)sc2ccc(F)cc12 [2-411] | 0 (Herbicidal rate of 5% or less (almost no effect)) | 0 (Herbicidal rate of 5% or less (almost no effect)) | 0 (Herbicidal rate of 5% or less (almost no effect)) | 0 (Herbicidal rate of 5% or less (almost no effect)) | 0 (Herbicidal rate of 5% or less (almost no effect)) | 3 (Herbicidal rate of 40% or more and less than 70%) | 2 (Herbicidal rate of 20% or more and less than 40%) | 0 (Herbicidal rate of 5% or less (almost no effect)) | 3 (Herbicidal rate of 40% or more and less than 70%) | 5 (Herbicidal rate of 90% or more (almost completely withered)) | 3 (Herbicidal rate of 40% or more and less than 70%) | 0 (Herbicidal rate of 5% or less (almost no effect)) | 0 (Herbicidal rate of 5% or less (almost no effect)) | 5 (Herbicidal rate of 90% or more (almost completely withered)) | 0 (Herbicidal rate of 5% or less (almost no effect)) | 3 (Herbicidal rate of 40% or more and less than 70%) | 3 (Herbicidal rate of 40% or more and less than 70%) | 1 (Herbicidal rate of 5% or more and less than 20%) | –
3 | CCCC(=O)Oc1c(C)nn(C)c(=O)c1-c1c(-c2ccc(F)cc2)sc2cc(F)ccc12 [3-002] | 3 (Herbicidal rate of 40% or more and less than 70%) | 3 (Herbicidal rate of 40% or more and less than 70%) | 0 (Herbicidal rate of 5% or less (almost no effect)) | 4 (Herbicidal rate of 70% or more and less than 90%) | 0 (Herbicidal rate of 5% or less (almost no effect)) | 5 (Herbicidal rate of 90% or more (almost completely withered)) | 5 (Herbicidal rate of 90% or more (almost completely withered)) | 0 (Herbicidal rate of 5% or less (almost no effect)) | 3 (Herbicidal rate of 40% or more and less than 70%) | 5 (Herbicidal rate of 90% or more (almost completely withered)) | 3 (Herbicidal rate of 40% or more and less than 70%) | 1 (Herbicidal rate of 5% or more and less than 20%) | 4 (Herbicidal rate of 70% or more and less than 90%) | 5 (Herbicidal rate of 90% or more (almost completely withered)) | 4 (Herbicidal rate of 70% or more and less than 90%) | 4 (Herbicidal rate of 70% or more and less than 90%) | 4 (Herbicidal rate of 70% or more and less than 90%) | 5 (Herbicidal rate of 90% or more (almost completely withered)) | –
